According to ChEMBL document CHEMBL1201862, “PubChem BioAssay data set” (2004):
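Protocol summary: plate cells (96-well), add compound at 5 concentrations, incubate 48 h, interpolate endpoints linearly. GI50: concentration for 50% inhibition of growth.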 Calls of active or inactive are those of the source. No stated cut-off is given here; in the data, active = GI50 up to about 1.1 µM and inactive = higher.

Tests used:
Assay in all cases: DTP human tumour cell line panel, 48 h
T47D = test system: T47D
UO-31 = test system: UO-31
TK-10 = test system: TK-10
NCI-H460 = test system: NCI-H460
OVCAR-5 = test system: OVCAR-5
UACC-62 = test system: UACC-62
K562 = test system: K562
RXF 393 = test system: RXF 393
HCT-15 = test system: HCT-15
IGROV-1 = test system: IGROV-1
M14 = test system: M14
MDA-MB-435 = test system: MDA-MB-435
SF-268 = test system: SF-268
786-0 = test system: 786-0
MDA-N = test system: MDA-N
A498 = test system: A498
HCT-116 = test system: HCT-116
RPMI-8226 = test system: RPMI-8226
CAKI-1 = test system: CAKI-1
SNB-75 = test system: SNB-75
HOP-62 = test system: HOP-62
DU-145 = test system: DU-145
MOLT-4 = test system: MOLT-4
SN12C = test system: SN12C
MDA-MB-231 = test system: MDA-MB-231
HT-29 = test system: HT-29
NCI/ADR-RES = test system: NCI/ADR-RES
NCI-H522 = test system: NCI-H522
U-251 = test system: U-251
HL-60 = test system: HL-60
HOP-92 = test system: HOP-92
SK-MEL-28 = test system: SK-MEL-28
SNB-19 = test system: SNB-19
SF-295 = test system: SF-295
NCI-H226 = test system: NCI-H226
NCI-H23 = test system: NCI-H23
SK-MEL-2 = test system: SK-MEL-2
SK-OV-3 = test system: SK-OV-3
SW-620 = test system: SW-620
MCF7 = test system: MCF7
CCRF-CEM = test system: CCRF-CEM
EKVX = test system: EKVX
KM12 = test system: KM12
SF-539 = test system: SF-539
UACC-257 = test system: UACC-257
SK-MEL-5 = test system: SK-MEL-5
PC-3 = test system: PC-3
LOX IMVI = test system: LOX IMVI
Malme-3M = test system: Malme-3M
A549 = test system: A549
Hs-578T = test system: Hs-578T
ACHN = test system: ACHN
OVCAR-8 = test system: OVCAR-8
OVCAR-3 = test system: OVCAR-3
COLO 205 = test system: COLO 205
OVCAR-4 = test system: OVCAR-4
BT-549 = test system: BT-549
HCC 2998 = test system: HCC 2998

In the case of `CCOC(=O)c1c[nH]c2cc3c(cc2c1=O)CCS3`, the GI50 (T47D) was > 100 µM (inactive), the GI50 (UO-31) was 83.9 µM (inactive) and the GI50 (TK-10) was > 100 µM (inactive). The GI50 (NCI-H460) was > 100 µM (inactive), the GI50 (OVCAR-5) was > 100 µM (inactive) and the GI50 (UACC-62) was > 100 µM (inactive). The GI50 (K562) was > 100 µM (inactive), the GI50 (RXF 393) was 57.8 µM (inactive) and the GI50 (HCT-15) was greater than 100 µM. For the same compound, the GI50 (IGROV-1) was > 100 µM (inactive), the GI50 (M14) was > 100 µM (inactive) and the GI50 (MDA-MB-435) was > 100 µM (inactive). For the same compound, the GI50 (SF-268) was > 100 µM (inactive), the GI50 (786-0) was > 100 µM (inactive) and the GI50 (MDA-N) was > 100 µM (inactive). For the same compound, the GI50 (A498) was > 100 µM (inactive), the GI50 (HCT-116) was 37.9 µM (inactive) and the GI50 (RPMI-8226) was > 100 µM (inactive). The GI50 (CAKI-1) was > 100 µM (inactive), the GI50 (SNB-75) was > 100 µM (inactive) and the GI50 (HOP-62) was > 100 µM (inactive). The GI50 (DU-145) was > 100 µM (inactive), the GI50 (MOLT-4) was > 100 µM (inactive) and the GI50 (SN12C) was > 100 µM (inactive). The GI50 (MDA-MB-231) was > 100 µM (inactive), the GI50 (HT-29) was 61.2 µM (inactive) and the GI50 (NCI/ADR-RES) was > 100 µM (inactive). The GI50 (NCI-H522) was > 100 µM (inactive), the GI50 (U-251) was > 100 µM (inactive) and the GI50 (HL-60) was 91 µM (inactive). For the same compound, the GI50 (HOP-92) was > 100 µM (inactive), the GI50 (SK-MEL-28) was > 100 µM (inactive) and the GI50 (SNB-19) was > 100 µM (inactive). For the same compound, the GI50 (SF-295) was > 100 µM (inactive), the GI50 (NCI-H226) was 50.4 µM (inactive) and the GI50 (NCI-H23) was > 100 µM (inactive). The GI50 (SK-MEL-2) was > 100 µM (inactive), the GI50 (SK-OV-3) was > 100 µM (inactive) and the GI50 (SW-620) was > 100 µM (inactive). The GI50 (MCF7) was > 100 µM (inactive), the GI50 (CCRF-CEM) was > 100 µM (inactive) and the GI50 (EKVX) was > 100 µM (inactive). For the same compound, the GI50 (KM12) was > 100 µM (inactive), the GI50 (SF-539) was > 100 µM (inactive) and the GI50 (UACC-257) was > 100 µM (inactive). For the same compound, the GI50 (SK-MEL-5) was > 100 µM (inactive), the GI50 (PC-3) was > 100 µM (inactive) and the GI50 (LOX IMVI) was > 100 µM (inactive). The GI50 (Malme-3M) was > 100 µM (inactive), the GI50 (A549) was > 100 µM (inactive) and the GI50 (Hs-578T) was > 100 µM (inactive). For the same compound, the GI50 (ACHN) was > 100 µM (inactive), the GI50 (OVCAR-8) was > 100 µM (inactive) and the GI50 (OVCAR-3) was > 100 µM (inactive). For the same compound, the GI50 (COLO 205) was > 100 µM (inactive), the GI50 (OVCAR-4) was > 100 µM (inactive) and the GI50 (BT-549) was > 100 µM (inactive). The GI50 (HCC 2998) was > 100 µM (inactive).
For `C=CCn1c(-c2ccc([N+](=O)[O-])cc2)csc1=N`, the GI50 (T47D) was 26.2 µM (inactive), the GI50 (UO-31) was 37.2 µM (inactive) and the GI50 (TK-10) was 66.7 µM (inactive). The GI50 (NCI-H460) was 61.1 µM (inactive), the GI50 (OVCAR-5) was > 100 µM (inactive) and the GI50 (UACC-62) was 37.7 µM (inactive). The GI50 (K562) was 9.59 µM (inactive), the GI50 (RXF 393) was 7.43 µM (inactive) and the GI50 (HCT-15) was 64.7 µM. The GI50 (IGROV-1) was 59 µM (inactive), the GI50 (M14) was 56.9 µM (inactive) and the GI50 (MDA-MB-435) was 43.5 µM (inactive). The GI50 (SF-268) was 74.5 µM (inactive), the GI50 (786-0) was 74.6 µM (inactive) and the GI50 (MDA-N) was 29.1 µM (inactive). For the same compound, the GI50 (A498) was > 100 µM (inactive), the GI50 (HCT-116) was 37.3 µM (inactive) and the GI50 (CAKI-1) was 69.5 µM (inactive). The GI50 (SNB-75) was 19.5 µM (inactive), the GI50 (HOP-62) was 78.2 µM (inactive) and the GI50 (DU-145) was 43.8 µM (inactive). For the same compound, the GI50 (SN12C) was > 100 µM (inactive), the GI50 (MDA-MB-231) was 16.8 µM (inactive) and the GI50 (HT-29) was 32 µM (inactive). For the same compound, the GI50 (NCI/ADR-RES) was 44.3 µM (inactive), the GI50 (NCI-H522) was 36.6 µM (inactive) and the GI50 (U-251) was 54.1 µM (inactive). The GI50 (HL-60) was 18.9 µM (inactive), the GI50 (HOP-92) was 47.5 µM (inactive) and the GI50 (SK-MEL-28) was > 100 µM (inactive). For the same compound, the GI50 (SNB-19) was > 100 µM (inactive), the GI50 (SF-295) was 18.4 µM (inactive) and the GI50 (NCI-H226) was 41.6 µM (inactive). For the same compound, the GI50 (NCI-H23) was 30 µM (inactive), the GI50 (SK-MEL-2) was 91.2 µM (inactive) and the GI50 (SK-OV-3) was 54.7 µM (inactive). For the same compound, the GI50 (SW-620) was 70 µM (inactive), the GI50 (MCF7) was 25.4 µM (inactive) and the GI50 (CCRF-CEM) was 11.1 µM (inactive). For the same compound, the GI50 (EKVX) was 16.4 µM (inactive), the GI50 (KM12) was 36.6 µM (inactive) and the GI50 (UACC-257) was 13.1 µM (inactive). The GI50 (SK-MEL-5) was 14.8 µM (inactive), the GI50 (PC-3) was 48.1 µM (inactive) and the GI50 (LOX IMVI) was 20.3 µM (inactive). For the same compound, the GI50 (Malme-3M) was 76.9 µM (inactive), the GI50 (A549) was 35.5 µM (inactive) and the GI50 (Hs-578T) was > 100 µM (inactive). For the same compound, the GI50 (ACHN) was 83.2 µM (inactive), the GI50 (OVCAR-8) was 69.2 µM (inactive) and the GI50 (OVCAR-3) was 41.4 µM (inactive). The GI50 (COLO 205) was > 100 µM (inactive), the GI50 (OVCAR-4) was 42.8 µM (inactive) and the GI50 (BT-549) was 92.5 µM (inactive). The GI50 (HCC 2998) was > 100 µM (inactive).
`Clc1ccccc1C(c1ccccc1)(c1ccccc1)n1ccnc1` [CLOTRIMAZOLE] was tested, and the GI50 (T47D) was 7.85 µM (inactive), the GI50 (UO-31) was 6.56 µM (inactive) and the GI50 (TK-10) was 15.3 µM (inactive). The GI50 (NCI-H460) was 10.7 µM (inactive), the GI50 (OVCAR-5) was 11.8 µM (inactive) and the GI50 (UACC-62) was 13.3 µM (inactive). The GI50 (K562) was 5.97 µM (inactive), the GI50 (RXF 393) was 17.4 µM (inactive) and the GI50 (HCT-15) was 8.67 µM. For the same compound, the GI50 (IGROV-1) was 7.57 µM (inactive), the GI50 (M14) was 13.5 µM (inactive) and the GI50 (MDA-MB-435) was 12.5 µM (inactive). The GI50 (SF-268) was 16.5 µM (inactive), the GI50 (786-0) was 14.9 µM (inactive) and the GI50 (MDA-N) was 11.9 µM (inactive). The GI50 (A498) was 20.6 µM (inactive), the GI50 (HCT-116) was 7.82 µM (inactive) and the GI50 (RPMI-8226) was 6.32 µM (inactive). For the same compound, the GI50 (CAKI-1) was 17.4 µM (inactive), the GI50 (SNB-75) was 16.5 µM (inactive) and the GI50 (HOP-62) was 11.4 µM (inactive). For the same compound, the GI50 (DU-145) was 17.3 µM (inactive), the GI50 (MOLT-4) was 8.95 µM (inactive) and the GI50 (MDA-MB-231) was 14.9 µM (inactive). The GI50 (HT-29) was 9.25 µM (inactive), the GI50 (NCI/ADR-RES) was 9.25 µM (inactive) and the GI50 (NCI-H522) was 6.38 µM (inactive). For the same compound, the GI50 (U-251) was 14.8 µM (inactive), the GI50 (HOP-92) was 11.8 µM (inactive) and the GI50 (SK-MEL-28) was 16.2 µM (inactive). For the same compound, the GI50 (SNB-19) was 14.4 µM (inactive), the GI50 (SF-295) was 9.95 µM (inactive) and the GI50 (NCI-H23) was 13 µM (inactive). The GI50 (SK-MEL-2) was 12.1 µM (inactive), the GI50 (SK-OV-3) was 14.5 µM (inactive) and the GI50 (SW-620) was 12 µM (inactive). For the same compound, the GI50 (MCF7) was 7.33 µM (inactive), the GI50 (CCRF-CEM) was 5.93 µM (inactive) and the GI50 (EKVX) was 7.93 µM (inactive). The GI50 (KM12) was 11.7 µM (inactive), the GI50 (UACC-257) was 10.8 µM (inactive) and the GI50 (SK-MEL-5) was 7.78 µM (inactive). The GI50 (PC-3) was 7.03 µM (inactive), the GI50 (Malme-3M) was 4.8 µM (inactive) and the GI50 (A549) was 8.2 µM (inactive). For the same compound, the GI50 (Hs-578T) was 15.1 µM (inactive), the GI50 (ACHN) was 10 µM (inactive) and the GI50 (OVCAR-8) was 11 µM (inactive). The GI50 (OVCAR-3) was 5.66 µM (inactive), the GI50 (COLO 205) was 8.99 µM (inactive) and the GI50 (OVCAR-4) was 9.82 µM (inactive). The GI50 (BT-549) was 8.05 µM (inactive) and the GI50 (HCC 2998) was 16.5 µM (inactive).
